# ChEMBL document CHEMBL3885861, “Open TG-GATES”
# Organism: Rattus norvegicus
# Test: Open TG-GATES - Regimen: Single
# Format: toxicity, organism-based, Sprague-Dawley
# Design: regimen Single, gender Male, age 6 weeks
# Conditions: in vivo, po, 0 mg/kg, route gavage, dose level Control; for APTT / Bas / Eos / Fbg / Hb / Ht / Lym / MCH / MCHC / MCV / Mono / Neu / PT / Plat / RBC / Ret / WBC: tissue Blood; for KIDNEY_L / KIDNEY_R / KIDNEY_TOTAL: tissue Kidney; for LIVER: tissue Liver; for A/G / ALP / ALT / AST / BUN / CRE / Ca / Cl / DBIL / GLC / IP / LDH / Na / PL / RALB / TBIL / TC / TG / TP / gamma-GTP: tissue Plasma
smiles,measurement,setting,value
NC(N)=Nc1nc(CSCCC(N)=NS(N)(=O)=O)cs1 [FAMOTIDINE],TERMINAL_BW,3 h,217.3 g
same,APTT,3 h,20.1 s
same,Bas,3 h,0%
same,Eos,3 h,1%
same,Fbg,3 h,209.8 mg/dL
same,Hb,3 h,13.2 g/dL
same,Ht,3 h,37.2%
same,Lym,3 h,64.8%
same,MCH,3 h,22.3 pg
same,MCHC,3 h,35.5%
same,MCV,3 h,62.6 fL
same,Mono,3 h,3.8%
same,Neu,3 h,26.8%
same,PT,3 h,12.5 s
same,Plat,3 h,110.5 x10_4/uL
same,RBC,3 h,593.6 x10_4/ul
same,Ret,3 h,8.2%
same,WBC,3 h,81.2 x10_2/uL
same,KIDNEY_L,3 h,1 g
same,KIDNEY_R,3 h,1 g
same,KIDNEY_TOTAL,3 h,1.9 g
same,LIVER,3 h,10.4 g
same,A/G,3 h,1.7
same,ALP,3 h,809.6 IU/L
same,ALT,3 h,39 IU/L
same,AST,3 h,71 IU/L
same,BUN,3 h,10.8 mg/dL
same,CRE,3 h,0.4 mg/dL
same,Ca,3 h,10.8 mg/dL
same,Cl,3 h,103.2 meq/L
same,DBIL,3 h,0.078 mg/dL
same,GLC,3 h,197.2 mg/dL
same,IP,3 h,9.1 mg/dL
same,LDH,3 h,196.4 IU/L
same,Na,3 h,140.8 meq/L
same,PL,3 h,139 mg/dL
same,RALB,3 h,3.4 g/dL
same,TBIL,3 h,0.1 mg/dL
same,TC,3 h,77.4 mg/dL
same,TG,3 h,55.8 mg/dL
same,TP,3 h,5.4 g/dL
same,gamma-GTP,3 h,1.4 IU/L
same,TERMINAL_BW,6 h,212.9 g
same,APTT,6 h,20 s
same,Bas,6 h,0%
same,Eos,6 h,0.8%
same,Fbg,6 h,218.6 mg/dL
same,Hb,6 h,13.4 g/dL
same,Ht,6 h,37.6%
same,Lym,6 h,79.4%
same,MCH,6 h,22 pg
same,MCHC,6 h,35.7%
same,MCV,6 h,61.7 fL
same,Mono,6 h,2.4%
same,Neu,6 h,15.2%
same,PT,6 h,12.4 s
same,Plat,6 h,119.6 x10_4/uL
same,RBC,6 h,610.2 x10_4/ul
same,Ret,6 h,6.9%
same,WBC,6 h,94.2 x10_2/uL
same,KIDNEY_L,6 h,1 g
same,KIDNEY_R,6 h,1 g
same,KIDNEY_TOTAL,6 h,2 g
same,LIVER,6 h,9.3 g
same,A/G,6 h,1.5
same,ALP,6 h,928.8 IU/L
same,ALT,6 h,32.6 IU/L
same,AST,6 h,64.2 IU/L
same,BUN,6 h,9.2 mg/dL
same,CRE,6 h,0.4 mg/dL
same,Ca,6 h,10.7 mg/dL
same,Cl,6 h,102.6 meq/L
same,DBIL,6 h,0.068 mg/dL
same,GLC,6 h,193.8 mg/dL
same,IP,6 h,9 mg/dL
same,LDH,6 h,193.6 IU/L
same,Na,6 h,140 meq/L
same,PL,6 h,142.8 mg/dL
same,RALB,6 h,3.3 g/dL
same,TBIL,6 h,0.1 mg/dL
same,TC,6 h,80.6 mg/dL
same,TG,6 h,60 mg/dL
same,TP,6 h,5.5 g/dL
same,gamma-GTP,6 h,1 IU/L
same,TERMINAL_BW,9 h,209.9 g
same,APTT,9 h,19.9 s
same,Bas,9 h,0%
same,Eos,9 h,1%
same,Fbg,9 h,228.2 mg/dL
same,Hb,9 h,13.3 g/dL
same,Ht,9 h,36.7%
same,Lym,9 h,65.4%
same,MCH,9 h,22.9 pg
same,MCHC,9 h,36.2%
same,MCV,9 h,63.3 fL
same,Mono,9 h,2.4%
same,Neu,9 h,29%
same,PT,9 h,12.7 s
same,Plat,9 h,118.2 x10_4/uL
same,RBC,9 h,580.8 x10_4/ul
same,Ret,9 h,7.5%
same,WBC,9 h,106.4 x10_2/uL
same,KIDNEY_L,9 h,1 g
same,KIDNEY_R,9 h,1 g
same,KIDNEY_TOTAL,9 h,2 g
same,LIVER,9 h,9.1 g
same,A/G,9 h,1.5
same,ALP,9 h,883.2 IU/L
same,ALT,9 h,28.4 IU/L
same,AST,9 h,56.8 IU/L
same,BUN,9 h,8.8 mg/dL
same,CRE,9 h,0.3 mg/dL
same,Ca,9 h,10.4 mg/dL
same,Cl,9 h,102.8 meq/L
same,DBIL,9 h,0.056 mg/dL
same,GLC,9 h,205.2 mg/dL
same,IP,9 h,9.4 mg/dL
same,LDH,9 h,138.6 IU/L
same,Na,9 h,140 meq/L
same,PL,9 h,133.8 mg/dL
same,RALB,9 h,3.2 g/dL
same,TBIL,9 h,0.1 mg/dL
same,TC,9 h,70.6 mg/dL
same,TG,9 h,46.6 mg/dL
same,TP,9 h,5.4 g/dL
same,gamma-GTP,9 h,0.8 IU/L
same,TERMINAL_BW,24 h,226.6 g
same,APTT,24 h,19.6 s
same,Bas,24 h,0%
same,Eos,24 h,1%
same,Fbg,24 h,232.4 mg/dL
same,Hb,24 h,13.3 g/dL
same,Ht,24 h,37.3%
same,Lym,24 h,78.4%
same,MCH,24 h,22.5 pg
same,MCHC,24 h,35.7%
same,MCV,24 h,63.2 fL
same,Mono,24 h,2.8%
same,Neu,24 h,15.8%
same,PT,24 h,11.9 s
same,Plat,24 h,126.9 x10_4/uL
same,RBC,24 h,590 x10_4/ul
same,Ret,24 h,6.6%
same,WBC,24 h,84.4 x10_2/uL
same,KIDNEY_L,24 h,1.1 g
same,KIDNEY_R,24 h,1.1 g
same,KIDNEY_TOTAL,24 h,2.1 g
same,LIVER,24 h,11 g
same,A/G,24 h,1.5
same,ALP,24 h,1002.2 IU/L
same,ALT,24 h,34.2 IU/L
same,AST,24 h,65.4 IU/L
same,BUN,24 h,13.4 mg/dL
same,CRE,24 h,0.4 mg/dL
same,Ca,24 h,10.7 mg/dL
same,Cl,24 h,102.6 meq/L
same,DBIL,24 h,0.088 mg/dL
same,GLC,24 h,186.4 mg/dL
same,IP,24 h,7.3 mg/dL
same,LDH,24 h,203.2 IU/L
same,Na,24 h,139.4 meq/L
same,PL,24 h,147.2 mg/dL
same,RALB,24 h,3.4 g/dL
same,TBIL,24 h,0.1 mg/dL
same,TC,24 h,81.8 mg/dL
same,TG,24 h,85.6 mg/dL
same,TP,24 h,5.7 g/dL
same,gamma-GTP,24 h,1 IU/L
